According to PMC4404333, “Identification of Selective Inhibitors of the Plasmodium falciparum Hexose Transporter PfHT by Screening Focused Libraries of Anti-Malarial Compounds” (PLoS ONE, 2015):
≈ marks a conversion by molar mass, not a printed value. Where two headings read alike, the source gives them in different places.

What was measured:
P. falciparum strain K1 = test: Proliferation of intraerythrocytic P. falciparum K1 (SYBR Green, 72 h); format: cell-based, Plasmodium falciparum; settings: multi-drug resistant strain K1, 72 h, read-out: Pf K1 EC50
Procedure: Two P. falciparum strains were used in this study and were provided by the MR4 Unit of the American Type Culture Collection (ATCC, Manassas, VA). Those two strains were the chloroquine sensitive strain 3D7 and the K1 strain that is resistant to chloroquine, pyrimethamine, and sulfadoxine.
Asynchronous parasites were maintained in culture based on the method of Trager. Parasites were grown in presence of fresh group O-positive erythrocytes (Key Biologics, LLC) in Petri dishes at a hematocrit of 4–6% in RPMI based media (RPMI 1640 supplemented with 0.5% AlbuMAX II, 25 mM HEPES, 25 mM NaHCO3 (pH 7.3), 100 μg/mL hypoxanthine, and 5 μg/mL gentamycin). Cultures were incubated at 37°C in a gas mixture of 90% N2, 5% O2, 5% CO2. For EC50 determinations, 20 μL of RPMI 1640 with 5 μg/mL gentamycin were dispensed per well in an assay plate (Corning 384-well microtiter plate, clear bottom, tissue culture treated, catalog no. 8807BC). 40 nL of compound, previously serially diluted in a separate 384-well white polypropylene plate (Corning, catalog no. 8748BC), was dispensed to the assay plate by hydrodynamic pin transfer (FP1S50H, V&P Scientific Pin Head) and then 20 μL of a synchronized culture suspension (1% rings, 4% hematocrit) was added to each well, thus making a final hematocrit and parasitemia of 2% and 1%, respectively. Assay plates were incubated for 72 h, and the parasitemia was determined by a method previously described: Briefly, 10 μL of the assay solution in PBS (10X SYBR Green I, 0.5% v/v triton X-100, 0.5 mg/mL saponin) was added to each well. Assay plates were shaken for 1 min, incubated in the dark for 90 min, and read with an Envision (Perkin Elmer) spectrophotometer at Ex/Em of 485 nm/535 nm. EC50s were calculated with a custom program (RISE, Robust Investigation of Screening Experiments) using a four-parameter logistic equation.

Solubility assay = format: physicochemical; settings: PBS buffer, aqueous buffer, kinetic from dmso stock, PBS pH 7.4, room temperature
Procedure: Next, 5 μL of this reference stock plate was mixed with 70 μL of 1-propanol and 75 μL of PBS (pH 7.4) to make the reference plate, and the UV spectrum (250–500 nm) of the reference plate was read. Then, 6 μL of 10 mM test compound stock was added to 600 μL of PBS, pH 7.4, in a 96-well storage plate and mixed. The storage plate was sealed and incubated at room temperature for 18 h. The suspension was then filtered through a 96-well filter plate (pION Inc.). Next, 75 μL of filtrate was mixed with 75 μL of 1-propanol to make the sample plate, and the UV spectrum of the sample plate was read. Calculations were done using μSOL Evolution software based on the area under the curve (AUC) of the UV spectrum of the sample plate and the reference plate. All compounds were tested in triplicate.

PfHT = PfHT (Plasmodium falciparum, UniProt Q7KWJ5); test: Uptake of [3H] D-glucose by L. mexicana Δlmxgt1-3 null mutants expressing PfHT; format: cell-based; parameters: expressed in transfected cells; host or cells: Leishmania mexicana promastigotes, Δlmxgt1-3 hexose transporter null mutant; settings: for Ki: linear regression; for Vmax: glucose uptake by PfHT; for mode of inhibition of glucose uptake through PfHT: substrate saturation curves, one-way ANOVA of Vmax and Km; for SIglucose GLUT1/PfHT (Specificity Index, IC50 for GLUT1/IC50 for PfHT): uptake of 100 μM [3H] D-glucose
PfHT, sequence (Q7KWJ5 whole entry): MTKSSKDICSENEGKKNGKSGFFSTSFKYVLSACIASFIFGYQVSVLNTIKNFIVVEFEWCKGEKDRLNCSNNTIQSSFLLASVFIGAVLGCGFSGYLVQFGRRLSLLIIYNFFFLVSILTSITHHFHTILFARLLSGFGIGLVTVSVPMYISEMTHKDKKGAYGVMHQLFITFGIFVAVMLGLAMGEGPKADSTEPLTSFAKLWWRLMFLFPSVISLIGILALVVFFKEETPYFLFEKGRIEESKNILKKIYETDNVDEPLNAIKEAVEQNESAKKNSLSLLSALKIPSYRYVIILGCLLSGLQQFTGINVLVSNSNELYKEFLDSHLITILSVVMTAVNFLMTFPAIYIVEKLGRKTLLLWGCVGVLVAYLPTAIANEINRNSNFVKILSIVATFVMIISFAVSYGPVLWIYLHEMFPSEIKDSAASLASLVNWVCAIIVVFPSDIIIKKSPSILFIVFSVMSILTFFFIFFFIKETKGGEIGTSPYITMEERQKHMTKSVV
Procedure: Glucose uptake assays employed logarithmic phase L. mexicana promastigotes of the Δlmxgt1-3 hexose transporter null mutant strain expressing either PfHT or GLUT1 from an episomal expression vector [17]. Parasites (1x10^7) were resuspended in 100 μL phosphate buffered saline, pH 7.4. Prior to uptake, parasites were pre-incubated for 5 min with inhibitor, and uptake was initiated by adding 100 μL of 200 μM [^3H] D-glucose diluted to 4.0 μCi/mL. Uptake was terminated, typically after 1 min, by centrifuging the parasites through a layer of dibutyl phthalate, as described. Control uptake assays employing [^3H] hypoxanthine, [^3H] uridine, and [^3H] L-proline were performed similarly. Analysis of kinetic data was performed using Graph Pad Prism 4.0b software (Graph Pad).

[1] = Liver microsomes stability assay; format: in vitro ADME, mouse; settings: both sexes, CD-1, pH 7.4; for CLint scaled at 9.8 μM: intrinsic clearance calculated from in vitro t1/2, mouse liver microsomes; for half-life at 9.8 μM: mouse liver microsomes, read-out: Mouse Metabolic Stability t1/2 (converted)
Procedure: The microsomal stability assay was carried out as described. […] Each test compound (2.2 μL of 10 mM DMSO solution) was added directly to 1.79 mL of mouse liver microsomal solution and 90 μL was transferred to wells in 96-well plates (0, 0.25, 0.5, 1, 2, and 4 h time points each in triplicate). The NADPH regenerating agent was prepared by mixing 0.113 mL of NADPH regenerating agent solutions A, 0.023 mL of solution B and 0.315 mL of 0.1 M potassium phosphate buffer (pH 7.4) for each tested compound. To each well of the 96-well plate, 22.5 μL of the NADPH regenerating agent was added to initiate the reaction, and the plate was incubated at 37°C for each time point (0, 0.25, 0.5, 1, 2, and 4 h time points each in triplicate). The reaction was quenched by adding 225 μL of cold acetonitrile containing warfarin (4 μg/mL) as internal control to each well. All of the plates were centrifuged at 3220 g for 20 min and the supernatants (100 μL) were transferred to another 96-well plate for analysis on UPLC—MS (Waters Acquity UPLC linked to Waters Acquity Photodiode Array Detector and Waters Acquity Single Quadrupole Mass Detector) on an Acquity UPLC BEH C18 1.7 μm (2.1x50 mm) column by running 90–5% gradient for water (0.1% formic acid) and acetonitrile (0.1% formic acid) in 2 minutes. The area under the single ion recording (SIR) channel for the test compound divided by the area under the SIR for internal control at 0 time concentration was considered as 100% to calculate remaining concentration at each time point. The terminal phase rate constant (ke) was estimated by linear regression of logarithmic transformed concentration versus time, where ke = slope x(-ln10). The half-life t1/2 was calculated as ln2/ke.

[2] = Plasmodium falciparum, K1, 72 h
[3] = Kic (Ki for binding of inhibitor to free transporter), from plot of Km/Vmax versus [I]
[4] = Kiu (Ki for binding of inhibitor to substrate-bound transporter), from plot of 1/Vmax versus [I]

Question: What does the source list for `CC1CCCCN1S(=O)(=O)c1ccc2nc(Nc3cccc(C#N)c3)ccc2c1` (stereo not drawn) [Compound 13]?
Answer: EC50 (P. falciparum strain K1; [2]): > 10000 nM; EC50 (P. falciparum strain K1): 7300 nM; solubility at 18 h (Solubility assay): 0.9 ± 1.2 µM (≈ 0.366 µg/mL); IC50 (PfHT): 320 nM; lower affinity for PfHT than Compound 1 (PfHT): 8 fold; selective inhibition of PfHT versus GLUT1 (PfHT): 94 fold; Ki (PfHT; [3]): 330 nM; Ki (PfHT; [4]): 260 nM; Vmax (PfHT; [I] 600 nM): 245 ± 67 pmol per 10^7 cells per min; Vmax (PfHT; [I] 1000 nM): 93 ± 53 pmol per 10^7 cells per min; mode of inhibition of glucose uptake through PfHT (PfHT): non-competitive inhibitors; SIglucose GLUT1/PfHT (Specificity Index, IC50 for GLUT1/IC50 for PfHT) (PfHT): 94; CLint scaled at 9.8 μM [1]: 680 mL/min/kg; half-life at 9.8 μM [1]: 4.8 min

Question: With `CC1CCCCN1S(=O)(=O)c1ccc2nc(Nc3ccccc3)ccc2c1` (stereo not drawn) [Compound 10] as the compound, how does the EC50 (P. falciparum strain K1; [2]) read?
Answer: > 10000 nM

Question: And the EC50 (P. falciparum strain K1)?
Answer: 12000 nM

Question: And the solubility at 18 h (Solubility assay)?
Answer: 0.4 µM (≈ 0.153 µg/mL)

Question: And the IC50 (PfHT; read-out: IC50 PfHT, inhibition of uptake of 100 μM [3H] D-glucose, 1 min uptake assay)?
Answer: > 10000 nM

Question: And the CLint scaled at 9.8 μM [1]?
Answer: 438 mL/min/kg

Question: What about the half-life at 9.8 μM [1] of the same compound?
Answer: 7.8 min

Question: Which EC50 (P. falciparum strain K1; [2]) does the source give for `CC1CCCCN1S(=O)(=O)c1ccc2nc(Nc3ccc(C#N)cc3)ccc2c1` (stereo not drawn) [Compound 12] here?
Answer: > 10000 nM

Question: What about the EC50 (P. falciparum strain K1) of the same compound?
Answer: > 16000 nM

Question: What about the IC50 (PfHT) of the same compound?
Answer: 2700 nM

Question: What about the “SIglucose GLUT1/PfHT (Specificity Index, IC50 for GLUT1/IC50 for PfHT)” value (PfHT) of the same compound?
Answer: 0.92

Question: What about the CLint scaled at 9.8 μM [1] of the same compound?
Answer: 178 mL/min/kg

Question: What about the half-life at 9.8 μM [1] of the same compound?
Answer: 19.2 min

Question: Which results are given for `COc1cc(Nc2ccc3cc(S(=O)(=O)N4CCCCC4C)ccc3n2)cc(OC)c1OC` (stereo not drawn) [Compound 1]?
Answer: EC50 (P. falciparum strain K1; [2]): ~1000 nM; EC50 (P. falciparum strain K1): 970 nM; solubility at 18 h (Solubility assay): 0.5 ± 0.4 µM (≈ 0.236 µg/mL); IC50 (PfHT): 39 nM; selective inhibition of PfHT versus GLUT1 (PfHT): 82 fold; Ki (PfHT; [3]): 33 nM; Ki (PfHT; [4]): 23 nM; Vmax (PfHT; [I] 50 nM): 280 ± 15 pmol per 10^7 cells per min; Vmax (PfHT; [I] 100 nM): 131 ± 4 pmol per 10^7 cells per min; mode of inhibition of glucose uptake through PfHT (PfHT): non-competitive inhibitors; SIglucose GLUT1/PfHT (Specificity Index, IC50 for GLUT1/IC50 for PfHT) (PfHT): 82; CLint scaled at 9.8 μM [1]: 213 mL/min/kg; half-life at 9.8 μM [1]: 16.2 min
